Assay results as given in patent US20160287553A1, “TRANSLATION INHIBITORS IN HIGH-DOSE CHEMO- AND/OR HIGH-DOSE RADIOTHERAPY” (DEUTSCHES KREBSFORSCHUNGSZENTRUM, priority 2013, published 2016).

How the values were obtained:
Primary human T cells = test: Ionizing radiation (IR)-induced apoptosis in T cells; type: cell-based; conditions: 24 h, increasing doses of IR, different concentrations of FL3 (FIG. 8b)
Method: (§1) DNA fragmentation was determined by FACS.
The radioprotective effect mediated by Roc-A was the highest when cells were treated with Roc-A 1 h before radiation of cells (FIG. 1d). However, when cells were treated 4 h after radiation, the radioprotective effect was still higher than 50% (FIG. 1d).

Peripheral blood T cells = test: Etoposide-induced apoptotic cell death of T cells (DNA fragmentation, AnnexinV, FSC/SSC); conditions: for Protection of normal T cells from Etoposide-induced cell death by Roc-derivatives: 50 μM Etoposide, 75 nM Roc-derivative, 24 h (FIG. 6b)
Method: The human malignant cell lines EU-3 (acute lymphoblastic leukemia), DND-41 (T cell leukemia), Hut-78 (T cell lymphoma), SKW6.4 (B cell leukemia), Reh (acute lymphoblastic leukemia), IM-9 (Chronic myeloid leukemia), HL-60 (promyelocytic leukemia), L1236 (Hodgkin's lymphoma) and NCI-H209 (small cell lung cancer) were cultured at 37° C. with 5% CO2 in RPMI-1640 medium (Sigma-Aldrich, Munich, Germany) supplemented with 10% FCS, 100 U/ml Penicillin (Sigma-Aldrich, Munich, Germany) and 100 μg/ml Streptamycin (Sigma-Aldrich, Munich, Germany) SCLC-21H cells (small cell lung cancer) were cultured in DMEM medium (Sigma-Aldrich, Munich, Germany) supplemented with 10% FCS. Peripheral blood T lymphocytes were isolated as previously described (Klas et al., Int Immunol. 1993; 5: 625-630). B lymphocytes and NK cells were isolated by magnetic activated cell sorting using “B cell isolation kit II” (Miltenyi Biotech, Bergisch Gladbach, Germany) and “NK cell isolation kit, human” (Miltenyi Biotech, Bergisch Gladbach, Germany), respectively, according to the manufacturer's instructions. Human neutrophils were separated from peripheral blood mononuclear cells by Ficoll-Paque density centrifugation, followed by incubation in 1.05% dextran for 30 min at room temperature. Remaining erythrocytes were lysed by resuspension in ice-cold 0.2% sodium chloride solution. After 1 min ice-cold 1.6% sodium-chloride solution was added and lysis was stopped by addition of PBS and neutrophils were resuspended in medium at a concentration of 2×10^6 cells/ml. Human primary cardiomyocytes were purchased from PromoCell (Heidelberg, Germany) and cultured in Myocyte Growth Medium (PromoCell, Heidelberg, Germany). Remaining primary human cells were cultured in RPMI-1640 medium with the same conditions described above.
Apoptotic cell death was determined by AnnexinV staining, cellular forward scatter/side scatter (FSC/SSC) profile, or DNA fragmentation. For AnnexinV staining, 2×10^5 cells were treated with different drugs for indicated time periods, washed with AnnexinV binding buffer (0.01 M Hepes, 0.14 M NaCl, 2.5 mM CaCl2), and stained with AnnexinV-FITC antibody (Immunotools, Friesoythe, Germany) and 7-amino-actinomycin D (Sigma-Aldrich, Munich, Germany) for 30 min at 4° C. The amount of AnnexinV positive cells was determined by FACS measurement. DNA fragmentation was determined according to the method of Nicoletti (Nicoletti et al., J Immunol Methods. 1991; 139: 271-279). Briefly, 2×10^5 cells were treated as indicated, washed with PBS and lysed in Nicoletti buffer (0.1% sodium citrate, 0.1% Triton X-100, 50 μg/ml propidium iodide). DNA fragmentation was determined by FACS. Apoptosis-like cells were determined by forward scatter and side scatter (FSC/SSC) index. Specific DNA fragmentation/specific AnnexinV positive cells/specific apoptosis was calculated as follows: (percentage of experimental DNA fragmentation (or Annexin V positive cells or apoptosis)−percentage of spontaneous DNA fragmentation (or Annexin V positive cells or apoptosis)/(100−percentage of spontaneous DNA fragmentation (or Annexin V positive cells or apoptosis))×100.

p53 = p53 protein expression by immunoblot; type: cell-based, human; conditions: T cells, 100 nM Bortezomib
Method: Immunoblot analysis was carried out as previously described (Polier et al., Chem Biol. 2012; 19: 1093-1104). Briefly, 4-20×10^6 cells were treated with different reagents as indicated and lysed in RIPA buffer (50 mM Tris HCl, 137 mM NaCl, 0.5% Na Deoxycholate, 1% Triton X-100, 0.1% SDS, protease inhibitors). Proteins were separated by SDS-PAGE and transferred to a nitrocellulose membrane (Amersham Biosciences, Little Chalfon, UK) using a semi-dry blotting approach. The following antibodies were used: p53 (DO-1) antibody was purchased from Santa Cruz Biotechnology (Heidelberg, Germany). Tubulin and actin (A5441) antibodies were purchased from Sigma-Aldrich (St. Louis, USA).
The transcription factor p53 is a major regulator of DNA damage-induced apoptosis (Lowe et al., Cell. 1993; 74: 957-967). Therefore, we investigated the effect of Roc-A on the expression level of p53.
p53 protein expression can be regulated at the level of transcription, translation, and ubiquitination-mediated degradation (Marine & Lozano, Cell Death Differ. 2010; 17: 93-102). It has been shown that upon DNA damage p53 undergoes post-translational modifications leading to its deubiquitination and, thus, stabilization (Lee & Gu, Cell Death Differ. 2010; 17: 86-92). To investigate whether Roc-A could decrease p53 stability, we treated T cells with the proteasome inhibitor Bortezomib to block proteasome-mediated degradation.

non-malignant cells = test: Fold change in cell death on raising the Etoposide dose, non-malignant cells (FIG. 9a-b); type: cell-based; conditions: Etoposide from 6.25 μM to 50 μM, 24 h, solvent (FIG. 9a)
Method: (§2) (a) Cells from (b) were grouped into malignant and non-malignant cells. Shown are means of three independent experiments. Abbreviations; HSPCs=hematopoietic stem and progenitor cells. (c-d) Malignant and non-malignant cells were exposed to ionizing radiation (IR) in the presence of 75 nM Roc-A or solvent (DMSO) and cell death was determined after 24 h by DNA fragmentation. Depicted is the fold-change in cell death that was measured when doses of IR were increased from 2 Gy to 10 Gy. (c) Cells from (d) were grouped into malignant and non-malignant cells. Shown are means of three independent experiments.
as §1
(§3) Roc-A specifically prevents the cause of chemotherapeutic and radiation-induced side-effects, i.e., the death of healthy cells. […] Consequently, high-dose therapy is not possible, as side effects would be too high.

malignant cells = test: Fold change in cell death on raising the Etoposide dose, malignant cells (FIG. 9a-b); type: cell-based; conditions: Etoposide from 6.25 μM to 50 μM, 24 h, solvent (FIG. 9a)
Method: as §2, §1, §3

ERK = conditions: Polier et al., op. cit.; cited from earlier work
[1] = system: protein synthesis in T cells; test: Translation assay: [35S]methionine incorporation in T cells; type: cell-based, human; conditions: T cells (FIG. 6b)
Method: The relative amount of protein synthesis was determined by measuring the amount of incorporation of ^35S-methionine into the protein. Briefly, cells were pre-cultured in methionine-free medium (supplemented with 10% dialyzed FCS) for 3 h, followed by incubation with 3.5 μCi of ^35S-methionine-labeling mix (PerkinElmer, Waltham, Mass., USA) per 8×10^5 cells for 6 h as indicated. After the treatment, cells were washed twice with ice-cold PBS and lysed in RIPA buffer. 50 μl of each lysate were added to 1 ml of Liquid Scintillation Cocktail solution (Beckman Coulter, Brea, Calif., USA) and the amount of incorporated radioactivity was determined by liquid scintillation counting.
Roc-A has been well documented to inhibit protein translation (Polier et al., Chem Biol. 2012; 19: 1093-1104; Sadlish et al., ACS Chem Biol. 2013; doi:10.1021/cb400158t; Bleumink et al., Cell Death Differ. 2011; 18: 362-370; Cencic et al., PloS one. 2009; 4: e5223). Thus, we expected that Roc-A-mediated suppression of genotoxin-induced p53 upregulation may be regulated by inhibition of p53 protein synthesis.

SMILES: COc1cc(OC)c2c(c1)O[C@@]1(c3ccc(Br)cc3)[C@H](c3ccccc3)C[C@@H](O)[C@@]21O (racemic) [FL3, racemic bromo-demethoxy-rocaglaol]
- Protection of T cells from IR-induced apoptotic cell death by FL3 (Primary human T cells): protects T cells
- Protection of T cells from Etoposide-induced apoptotic cell death by FL3 (Peripheral blood T cells; 24 h, increasing doses of Etoposide, different concentrations of FL3 (FIG. 8a)): protects T cells

SMILES: CC(C)C[C@H](NC(=O)[C@H](Cc1ccccc1)NC(=O)c1cnccn1)B(O)O [Bortezomib, reference compound]
- Interference with Roc-A block of Etoposide-induced p53 upregulation (p53; 50 μM Etoposide, 75 nM Roc-A, 4 h (FIG. 6a)): did also not interfere with the ability of Roc-A to block Etoposide-induced p53 upregulation
- p53 level on proteasome inhibition (p53; absence of Roc-A (FIG. 6a)): led to an increase in p53
- p53 level on proteasome inhibition (p53; presence of 75 nM Roc-A (FIG. 6a)): could not increase p53

SMILES: COc1cc([C@@H]2c3cc4c(cc3[C@@H](O[C@@H]3O[C@@H]5CO[C@@H](C)O[C@H]5[C@H](O)[C@H]3O)[C@H]3COC(=O)[C@H]23)OCO4)cc(OC)c1O [Etoposide, reference compound]
- Increase in Etoposide-induced cell death (non-malignant cells): up to 3 fold
- Increase in Etoposide-induced cell death (malignant cells): approximately 3 fold
- Cell death of normal T cells by the genotoxin (Peripheral blood T cells; 24 h, increasing concentrations of Etoposide): caused cell death of normal T cells

SMILES: COC(=O)C1C(OC(C)=O)C2(O)c3c(OC)cc(OC)cc3OC2(c2ccc(OC)cc2)C1c1ccccc1 (centres unmarked) [Roc-AA, C-1-O-acetyl-methylrocaglate]
- Inhibitory effect on ERK activity / activation (ERK): do not show any or very little inhibitory effects on ERK activity
- Protection of normal T cells from Etoposide-induced cell death by Roc-derivatives (Peripheral blood T cells): did not protect T cells
- Inhibition of [35S]methionine incorporation (protein translation) [1]: did not inhibit protein translation

SMILES: COc1ccc([C@@]23Oc4cc(OC)cc(OC)c4[C@]2(O)[C@H](OC(C)=O)[C@H](C(=O)N(C)C)[C@H]3c2ccccc2)cc1 [Roc-AB, 1-O-acetyl-rocaglamide]
- Inhibitory effect on ERK activity / activation (ERK): inhibit ERK activation with different efficacies
- Protection of normal T cells from Etoposide-induced cell death by Roc-derivatives (Peripheral blood T cells): different levels of protection
- Inhibition of [35S]methionine incorporation (protein translation) [1]: inhibited [^35S]methionine incorporation at different degrees

SMILES: COC(=O)C1C(O)C2(O)c3c(OC)cc(OC)cc3OC2(c2ccc3c(c2)OCO3)C1c1ccccc1 (centres unmarked) [Roc-AF, 30,40-methylendioxy-methylrocaglate]
- Inhibitory effect on ERK activity / activation (ERK): do not show any or very little inhibitory effects on ERK activity
- Protection of normal T cells from Etoposide-induced cell death by Roc-derivatives (Peripheral blood T cells): did not protect T cells
- Inhibition of [35S]methionine incorporation (protein translation) [1]: did not inhibit protein translation

SMILES: COc1cc(OC)c2c(c1)OC1(c3ccc4c(c3)OCO4)C(c3ccccc3)CC(=O)C21O (centres unmarked) [Roc-AR, 1-oxo-40-demethoxy-30,40-methylenedioxyrocaglaol]
- Inhibitory effect on ERK activity / activation (ERK): inhibit ERK activation with different efficacies
- Protection of normal T cells from Etoposide-induced cell death by Roc-derivatives (Peripheral blood T cells): different levels of protection
- Inhibition of [35S]methionine incorporation (protein translation) [1]: inhibited [^35S]methionine incorporation at different degrees

SMILES: COc1cc(OC)c2c(c1)OC1(c3ccc(OC)c(O)c3)C(c3ccccc3)C(C(=O)N(C)C)C(OC(C)=O)C21O (centres unmarked) [Roc-I, C-1-O-acetyl-30-hydroxy-rocaglamide]
- Inhibitory effect on ERK activity / activation (ERK): do not show any or very little inhibitory effects on ERK activity
- Protection of normal T cells from Etoposide-induced cell death by Roc-derivatives (Peripheral blood T cells): did not protect T cells
- Inhibition of [35S]methionine incorporation (protein translation) [1]: did not inhibit protein translation

SMILES: COC(=O)[C@H]1[C@@H](O)[C@@]2(O)c3c(OC)cc(OC)cc3O[C@@]2(c2ccc(OC)c(O)c2)[C@@H]1c1ccccc1 [Roc-J, 30-hydroxyaglafoline]
- Inhibitory effect on ERK activity / activation (ERK): inhibit ERK activation with different efficacies
- Protection of normal T cells from Etoposide-induced cell death by Roc-derivatives (Peripheral blood T cells): different levels of protection
- Inhibition of [35S]methionine incorporation (protein translation) [1]: inhibited [^35S]methionine incorporation at different degrees

SMILES: CNC(=O)[C@H]1[C@@H](O)[C@@]2(O)c3c(OC)cc(OC)cc3O[C@@]2(c2ccc(OC)cc2)[C@@H]1c1ccccc1 [Roc-Q, demethylrocaglamide]
- Inhibitory effect on ERK activity / activation (ERK): inhibit ERK activation with different efficacies
- Protection of normal T cells from Etoposide-induced cell death by Roc-derivatives (Peripheral blood T cells): different levels of protection
- Inhibition of [35S]methionine incorporation (protein translation) [1]: inhibited [^35S]methionine incorporation at different degrees
